The values below come from a melting point compilation (Tetko et al.; mined from patent text by program, amines drawn as free bases though some values may be those of a salt).

`COc1cc(C(CCC(C(=O)O)c2cc(OC)c(OC)c(OC)c2)C(=O)O)cc(OC)c1OC` (stereo unspecified): the melting point is 226 to 233 °C.
Compound `CCOC(=O)c1cn(C(C)(C)C)c2nc(N3CC[C@H](N)C3)c(F)cc2c1=O` yielded a melting point of 255 °C.
As for `CC(C)(C(=O)O)c1cc(C(F)(F)F)cc(C(F)(F)F)c1`, the melting point lay in the range of 106 to 107 °C.
Compound `CCOc1c(C)c(C)c2c(c1C)CCC(C)(COc1ccc(N)cc1)O2` (stereo unspecified) gave a melting point of 121 to 123 °C.
Then `COc1cc(Nc2nccc(-c3ccc(NCCCN4CCOCC4)nc3)n2)cc(OC)c1OC`, with 165 to 166 °C.
Turning to `O=c1cccc(-c2nc(=O)c3ccccc3s2)[nH]1`, the melting point lay in the range of 214 to 215 °C.
The compound `Cc1cn(-c2ccc3c(c2)c2ccccc2n3-c2ccccc2)c(-c2nc(C)cn2-c2ccc3c(c2)c2ccccc2n3-c2ccccc2)n1` had a melting point of 245 to 253 °C.
For `Cc1cccc(-c2sc(N)nc2-c2ccnc(-c3ccc(C(=O)NC4CCOCC4)cc3)c2)n1` the value was 283 °C; for `Cc1cc2nc(O)nc(O)c2s1`, > 300 °C.
Consider `CC(C)C1(COC(C)(C)C)Cc2cc(OCC(=O)O)c(Cl)c(Cl)c2C1=O` (stereo unspecified), for which the melting point lay within 148 to 149 °C.
Consider `O=C1C(O)=C(c2ccc3ccccc3c2)C(=O)C(O)=C1c1ccc(Cl)cc1`, for which the melting point was 302 to 303 °C.
In turn, `Cc1onc(C(=O)c2ccc(Cl)cc2)c1[N+](=O)[O-]` gave a melting point of 173 to 175 °C.
Then `Cc1cccc(Sc2c(O)c3ccc(Cl)cc3[nH]c2=O)c1`, with 234 to 236 °C; and `Cn1c(COc2cccc(C(=O)O)c2)nc2ccc(Oc3cccnc3)cc21`, with 240 to 245 °C; and `COc1ccc(C(=C/C=C/C(=O)NCCCOc2cccnc2)c2ccc(OC)cc2)cc1`, with 146 to 147 °C.
The compound `CCCN(Cc1cccc(C(=N)N)c1)C(=O)Nc1ccc(-c2ccccc2S(N)(=O)=O)cc1` gave a melting point of 166 to 167 °C.
For `N=C(NO)c1cc(Oc2ccc(Cl)cc2Cl)c(O)cc1Cl` the value was 137 °C; for `O=C(Nc1ccc(C(CC2CCCC2)C(=O)Nc2nccs2)cc1)c1ccncc1` (stereo unspecified), 225 to 230 °C; for `CS(=O)(=O)c1ccc(-c2cc3c(cc2-c2ccc(F)cc2)OCO3)cc1`, 173 to 174 °C.
`CC(=O)OC1CCC2(C)C(=CCC3C2CCC2(C)C(n4cnc5ccccc54)=CCC32)C1` (stereo unspecified) displayed a melting point of 159 to 160 °C.
As for `CC(C)(C)n1c(Cl)c(-c2ccc(Oc3ccccc3)cc2)c2c(N)ncnc21`, the melting point is 137 to 138 °C.
`O=C(O)Cc1c(C(=O)c2cc3ccccc3cn2)[nH]c2cc(Cl)ccc12` returned a melting point of 236 to 237 °C.
Then `CCCCCc1cc2c(=O)oc(C(=O)OCC)nc2s1`, with 69.6 to 70.5 °C; and `Cc1ccc2c(c1)N(CC(=O)c1ccccc1C)C(=O)C(NC(=O)Nc1cccc(C(=O)O)c1)CN2C(=O)c1cccs1` (stereo unspecified), with 219 to 222 °C.
Consider `CN(c1ccccc1)[C@@H]1C=Cc2ccccc2[C@H]1O`, for which the melting point lay in the range of 127 to 129 °C.
Then `O=C1COC(CNC(=O)c2cccnc2Oc2ccc(F)cc2)CN1` (stereo unspecified), with 157 to 159 °C; and `O=C1NC(=O)C2(CCc3cc(F)ccc32)N1` (racemic), with > 260 °C; and `O=C(O)/C=C/c1ccc(C(c2cc(F)ccc2F)S(=O)(=O)c2ccc(Cl)cc2)nc1` (stereo unspecified), with 236 to 238 °C.
With `CC(F)(F)C1(O)c2cc(Cl)ccc2Nc2ncccc21` (stereo unspecified), the melting point was in the range of 188 to 190 °C.
In turn, `Cc1n[nH]c2cc(-c3nn(Cc4oc5ccc(F)cc5c(=O)c4-c4ccccc4)c4ncnc(N)c34)ccc12` gave a melting point of 277 to 279 °C.
As to `CCN1c2ncc(CS(=O)(=O)c3ccccc3)cc2C(=O)N(C)c2ccc(Cl)nc21`, the melting point was in the range of 96 to 98 °C.
The compound `CNC(=O)c1cc2c(Oc3ccc(OC(F)(F)F)cc3)cncc2s1` showed a melting point of 132 to 133 °C.
Compound `CC(=NO)[C@H]1C[C@H](C(=O)OC(C)(C)C)N(C(=O)CNC(=O)Nc2cccc(C(=O)O)c2)[C@@H]1c1ccccc1` (racemic) came in with a melting point of 180 °C.
For `CCCc1c(OCc2ccc(C(=O)O)cc2)ccc(C(C)=O)c1O` the value was 188 °C; for `COc1ccc(-c2ccc3cc(C4SC(=O)NC4=O)ccc3c2)cc1C12CC3CC(CC(C3)C1)C2` (stereo unspecified), 205 to 207 °C; for `COC(=O)c1sc2cccc(C#N)c2c1N`, 169 to 170 °C.
For `O=C(Nc1ccc(C(=O)N2Cc3ccccc3Cc3cc(Cl)ccc32)cc1)c1ccc(Cl)cc1Cl` the value was 199 to 201 °C.
For `C=C1CC(C)(COc2ccc3ccc(=O)oc3c2)OC1=O` (stereo unspecified) the value was 123 to 124 °C; for `CSc1[nH]n(-c2c(Cl)cc(Cl)cc2Cl)c2nc(Cc3cccc(O)c3)nc(=O)c1-2`, 264 to 266 °C; for `O=C(c1ccccc1)C(O)O`, 85 to 85.5 °C.
In turn, `COc1cc2ncc(C#N)c(Nc3ccc(C)c(O)c3)c2cc1OC` displayed a melting point of 222 to 224 °C.
In the case of `OCC[C@H](O)COC(c1ccccc1)(c1ccccc1)c1ccccc1`, the melting point is 68.8 to 70.9 °C.
As for `CCS(=O)(=O)Nc1cc(C2(NC)NC=NC=C2Cl)c(F)cc1C#N` (stereo unspecified), the melting point fell in the range of 211 to 212 °C.
As for `NNc1ccc(Cl)cc1Cl`, the melting point was 90 to 91 °C.
For `O=C1CCc2cc(OCC(F)(F)C(F)(F)F)ccc21` the value was 52 to 54 °C; for `O=C(O)CCCCc1nn(-c2cccc(C(F)(F)F)c2)c2c1CCCC2`, 105 °C.
Regarding `COc1ccccc1CN1CCc2cc(OCc3ccccc3)c(OC)cc2C1`, the melting point was in the range of 85 to 86 °C.
As to `COc1ccc(C2(CCN3CCC(C(=O)c4nc5ccccc5n4Cc4ccc(F)cc4)CC3)CCN(C(=O)c3cc(OC)c(OC)c(OC)c3)C2)cc1OC` (stereo unspecified), the melting point was 80 to 83 °C.
For `COC(=O)N1c2cc(OC)c(OC)cc2C(=O)CC1C` (stereo unspecified) the value was 156 to 158 °C.
Consider `COc1ccc(-c2cc(SC(F)(F)F)[nH]c2-c2ccc(OC)cc2)cc1`, for which the melting point lay in the range of 114 to 115 °C.
In turn, `C(=C\c1cccs1)/c1ncon1` yielded a melting point of 78 °C.
For the compound `CCCc1ncc(CN2CC=C(c3ccc(F)cc3)CC2)c(N)n1`, the melting point fell in the range of 142 to 145 °C.
With `CCCCCCCCc1cccc(N2CC(=O)NC(=O)N2)c1`, the melting point fell in the range of 169 to 171 °C.
Compound `N#CC1C=Cc2cc(Cl)ccc2N1C(=O)c1ccccc1` (stereo unspecified) displayed a melting point of 141 to 143 °C.
The compound `CCN(CC)C(=N)N[N+](=O)[O-]` displayed a melting point of 96 to 97 °C.
Compound `CCCCCCCCCCCCCCCCCCOC(=O)ON1C(=O)c2ccccc2C1=O` yielded a melting point of 83 to 89 °C.
`C#CCOc1ccc(C(=O)C=Cc2c(OC)cc(OC)cc2OC)c(O)c1` had a melting point of 177 to 179 °C.
`Cc1ccc(CSc2nc3cc4c(cc3[nH]2)C(C)(C)C(=O)C4(C)C)nc1` came in with a melting point of 220 to 222 °C.
The compound `O=C(Nc1cccc(Oc2cccc(C(=O)O)c2)c1)NC12CC3CC(CC(C3)C1)C2` showed a melting point of 152 to 154 °C.
Then `N#Cc1ccc(N(c2ccc(N)cc2)n2ccnc2)cc1`, with 147 °C; and `COc1cc(C(=O)CC(=O)c2ccccc2O)cc([N+](=O)[O-])c1OC`, with 188 to 189 °C.
